The test system of one series is CA-MRSA strain. Description: Reactivation assay (sub-MIC co-dosing). It counts as cell-based, Staphylococcus aureus. The following applies: sub-MIC concentrations of TET-14,0,0, varying concentrations of triscationic variant. The text has this: It was hypothesized that by using a reactivation assay (essentially the inverse of a potentiation assay), the role QacR plays in monoQAC resistance could be better understood. […] Other possible hypotheses include that QacR may be activated by our monoQACs but that QacA cannot efflux the trisQACs or that the resistance mechanism implicated for TET-14,0,0 may be orthogonal to the Qac system.

Series [1] deals with Staphylococcus aureus (SA; MSSA SH1000). Description: Minimum inhibitory concentration (MIC). Type of series: cell-based. The gist of the method:
(§1)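 Two-fold serial dilutions, twelve concentrations, from 10% DMSO/aqueous stock; overnight cultures diluted to ca. 10^6 cfu/mL in Mueller-Hinton medium, mixed 1:1 with compound. Static incubation at 37° C for 72 hours; MIC = lowest concentration with no visible growth, majority of three independent experiments.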

Series [2] relates to community-acquired methicillin-resistant Staphylococcus aureus CA-MRSA (USA300-0114). The series can be described thus: Minimum inhibitory concentration (MIC). Type of series: cell-based. The gist of the method:
as §1

Series [3] deals with Enterococcus faecalis (OG1RF). Description: Minimum inhibitory concentration (MIC). It counts as cell-based. The gist of the method:
as §1

For series [4], the system named is Escherichia coli (MC4100). Description: Minimum inhibitory concentration (MIC). It counts as cell-based. The gist of the method: as §1
Series [5] deals with Pseudomonas aeruginosa (PAO1). Description: Minimum inhibitory concentration (MIC). Type of series: cell-based. The gist of the method:
as §1

Series [6] deals with hospital-acquired methicillin-resistant Staphylococcus aureus HA-MRSA (ATCC 33591). The series can be described thus: Minimum inhibitory concentration (MIC). Type of series: cell-based. The conditions noted are these: Table 6. The gist of the method:
as §1

Series [7] relates to Staphylococcus aureus (MSSA) biofilms. The series can be described thus: Minimum biofilm eradication concentration (MBEC), regrowth assay. Type of series: cell-based. The conditions noted are these: Table 1. On the procedure: (§2) A regrowth assay was used to establish the MBEC of a compound to evaluate the antibiofilm activity. See also H. Ceri, M. Olson, D. Morck, D. Storey, R. Read, A. Buret, B. Olson, Methods Enzymol. 2001, 337, 377, which is incorporated by reference herein in its entirety.
(§3) To each well of a flat-bottomed 96-well plate (Corning 3370), 8 μL of overnight bacterial culture was brought to a volume of 200 μL with fresh media (BHI for MSSA and MRSA). Plates were incubated statically for 24 hours at 37° C. to establish biofilms. After 24 hours, the wells were carefully emptied by inverting the plate and gently shaking. A pre-mixed solution of media and compound stock solution was added to each well and plates were incubated at 37° C. 16 hours after pre-established biofilms were treated with compound, the media from each well was removed, biofilms were washed three times with 200 μL PBS to remove planktonic cells, and biofilms were incubated overnight at 37° C. in 200 μL of fresh media to allow any viable cells to continue growing. The wells were then vigorously pipetted to resuspend the biofilm cells and the OD at 595 nm was measured using a plate reader (POLARstar Omega, BMG Labtech). Biofilms reaching a final OD of less than 0.1 were considered eradicated and the lowest concentration of antibiotic corresponded to the MBEC. Four replicates were completed for each concentration of compound as well as positive and negative controls.

Series [8] has as its system Enterococcus faecalis biofilms. The description is as above. Type of series: cell-based. The following applies: Table 1.
From the text: as §2

The test system of series [9] is MRSA biofilms (S. aureus USA300-0114). The series is described as above. Type of series: cell-based, Staphylococcus aureus. The following applies: Table 2; pre-formed MRSA biofilms. On the procedure: as §2, §3
The test system of the next series is red blood cells. Type of series: cell-based, sheep. On the procedure:
To date, synthesized compounds have been evaluated against planktonic bacteria (E. coli, S. aureus, P. aeruginosa, E. facaelis) and bacterial biofilms (E. facaelis, S. aureus, MRSA); new compounds are similarly assessed. All compounds are also evaluated via a hemolysis assay to assess their ability to lyse red blood cells (RBC) (Nagamune et al., 2000, Toxicology in Vitro 14:139-147). The assay is conducted following a known protocol to determine the concentration of compound that causes 20% of RBCs to be lysed. […] All compounds are benchmarked against three commercial antiseptics—benzalkonium chloride, DDAC, and CHX (FIG. 1).
Hemolysis assays were performed according to a known method (Peng et al., 2011, Chem. Comm. 47:4896-4898). Defibrinated sheep blood was purchased from Hemostat Labs (DSB030). Compounds representative of each class were serially diluted in sterile PBS from stock solutions and incubated with resuspended blood cells. The OD of the final suspensions were measured directly using plate reader. TritonX (1% by volume) served as a positive control (100% lysis marker) and sterile PBS served as a negative control (0% lysis marker).

For another series, the system named is Pseudomonas aeruginosa. The arrangement: MIC against Pseudomonas aeruginosa: unit not given here. The following applies: cited from earlier work.
Series [10] has as its system methicillin-resistant Staphyloccocus aureus (MRSA). The conditions noted are these: at 350 μm, cited from earlier work.
Series [11] relates to six bacteria (SA, HA-MRSA, CA-MRSA, EF, EC, PA). Description: MIC against the panel of bacteria tested. Type of series: cell-based. The following applies: quinine- and nicotine-derived QACs; in words. On the procedure: As used herein, the term “minimum inhibitory concentration (MIC)” refers to the lowest concentration of an antimicrobial agent that will inhibit the visible growth of a microorganism after overnight incubation. MIC values against bacteria, for example, the Gram-positive Staphylococcus aureus and Enterococcus faecalis and the Gram-negative Escherichia coli and Pseudomonas aeruginosa were determined by standard methods. See also P. A. Wayne, Methods for Dilution Antimicrobial Tests for Bacteria that Grow Aerobically; Approved Standard, Ninth Edition, 2012, CLSI Document M07-A9, Vol. 32 No. 2, which is incorporated by reference herein in its entirety.
The complete set of MIC values against six bacteria [Staphylococcus aureus (SA), hospital-acquired methicillin-resistant SA (HA-MRSA), community-acquired methicillin-resistant SA (CA-MRSA), Enterococcus faecalis (EF), Escherichia coli (EC), and Pseudomonas aeruginosa (PA)] is presented in Table 3, wherein multiQACs are grouped with their monoQAC counterparts. The dye-based QACs with greatest inhibition of the complete range of Gram-positive and Gram-negative bacteria featured bis- or tris-quaternization, with the optimal alkyl total ranging from 17-24 carbons. For example, comparison of two biscationic series -LMG-n,1 and LMG-n,n—evaluates the effect of total alkyl chain length in retention of efficacy against the more challenging CA-MRSA and the Gram-negative strains EC and PA.
(§4) Compounds were serially diluted two-fold from a 10% DMSO/aqueous stock solution to yield twelve test concentrations. Overnight S. aureus, E. faecalis, E. coli, P. aeruginosa, CA-MRSA, and HA-MRSA cultures diluted to ca. 10^6 cfu/mL in Mueller-Hinton media and 100 μL were inoculated into each well of a U-bottom 96-well plate (BD Biosciences, BD351177) containing 100 μL of compound solution. Plates were incubated statically at 37° C. for 72 hours upon which time wells were evaluated visually for bacterial growth. The MIC was determined as the lowest concentration of compound resulting in no bacterial growth visible to the naked eye, based on the majority of three independent experiments. Positive and negative DMSO/aqueous solution and media controls were conducted for each trial. See Peng et al., 2011, Chem. Comm. 47:4896-4898.

In series [12] the test system is two MRSA strains-USA300-0114 and ATCC33591. Description: MIC against MRSA strains compared to MSSA. The conditions noted are these: natural product-derived QACs; for susceptibility to QAC/MRSA resistance: MSSA vs MRSA, in words. Type of series: cell-based, Staphylococcus aureus. On the procedure: as §4
MIC values against Gram-positive Staphylococcus aureus (methicillin-susceptible Staphyloccocus aureus (MSSA) and two MRSA strains-USA300-0114 and ATCC33591) and Enterococcus faecalis and Gram-negative Escherichia coli and P. aeruginosa were determined according to standard, and results appear in Table 4.

Take `CCCCCCCCCCCCCC[N+](CC)(CC)c1ccc(N(c2ccc([N+](C)(CC)CC)cc2)c2ccc([N+](C)(CC)CC)cc2)cc1` [TET-14,1,1]: in the series with CA-MRSA strain, the “modification of MIC on co-dosing with sub-MIC TET-14,0,0” value is “did not result in any significant modification”.
As to “benzalkonium chloride [reference compound]”, in series [1] (Table 1), the “MIC v SA” value was found to be 8 µM. Besides, the “MIC v SA” value in series [1] (Table 2, non-resistant S. aureus strain (SH1000)) turned out to be 8 µM. The “MIC SA” value in series [1] (Table 6) is 8 µM. In series [2] (Table 2, qac-bearing MRSA strain USA300-0114), the “MIC v MRSA” value is 32 µM. In addition, in series [2] (Table 6), the “MIC CA-MRSA” value was 8 µM. Also, in [3] (Table 1), the “MIC v EF” value came to 8 µM. Besides, the “MIC EF” value in series [3] (Table 6) was 8 µM. In addition, in series [4] (Table 1), the “MIC v EC” value was determined as 32 µM. In series [4] (Table 6), the “MIC EC” value turned out to be 32 µM. Besides, in series [5] (Table 1), the “MIC v PA” value was found to be 63 µM. For the same compound, the “MIC PA” value in series [5] (Table 6) amounted to 63 µM. Also, the “MIC HA-MRSA” value in series [6] was 32 µM. The “MBEC v SA” value in [7] was determined as 200 µM. Moreover, in [8], the “MBEC v EF” value was determined as 200 µM. The “MBEC v MRSA” value in series [9] is over 200 µM. Further, in the series on red blood cells, the Lysis20 is 63 µM, the “TI MRSA” value came to 2 and the “TI SA” value worked out at 8.
With Latifolian A, in the series on Pseudomonas aeruginosa (Martin et al., 2011), the “MIC against Pseudomonas aeruginosa” value was 35. The “inhibition of MRSA” value in series [10] is on record as 55%.
For the compound `C=CC1C[N+]2(CCCCCCCCCCCCCCCC)CCC1C[C@H]2[C@@H](O)c1cc[n+](C)c2ccc(OC)cc12.[Br-].[I-]` (stereo partly shown) [Q-16,1], in [11], the antimicrobial activity result is reported as “single-digit micromolar activity”. Further, the “susceptibility to QAC/MRSA resistance” value in [12] is reported as “unaffected by QAC resistance”.
Turning to `C=CC1C[N+]2(CCCCCCCCCCCCCCCCCC)CCC1C[C@H]2[C@@H](O)c1cc[n+](C)c2ccc(OC)cc12.[Br-].[I-]` (stereo partly shown) [Q-18,1], the antimicrobial activity entry in series [11] is on record as “single-digit micromolar activity”. In [12], the “susceptibility to QAC/MRSA resistance” value is reported as “unaffected by QAC resistance”.
For the compound `C=CC1C[N+]2(CCCCCCCCCCCCCCCCCC)CCC1C[C@H]2[C@@H](O)c1ccnc2ccc(OC)cc12.[Br-]` (stereo partly shown) [Q-18,0], in series [12], the “increase in MIC of MRSA as compared to MSSA” value stood at 32 fold.
For the compound `COc1ccc2cc3[n+](cc2c1OC)CCc1cc2c(cc1-3)OCO2` [Berberine, berberine], in the series with Pseudomonas aeruginosa (in words, literature), the “activity against P. aeruginosa” value was “micromolar activity”.
Consider `COc1cc2c(cc1O)[C@@H](Cc1ccc(O)cc1)[N+](C)(C)CC2` [magnocuraine, magnocurarine], for which the “effectiveness against MRSA” value in series [10] (in words) is recorded as “no effectiveness”.

Source of the values: US20180111893A1, “POLYCATIONIC AMPHIPHILES AND POLYMERS THEREOF AS ANTIMICROBIAL AGENTS AND METHODS USING SAME” (Temple University-Of The Commonwealth System of Higher …, priority 2015, published 2018).
